According to ChEMBL document CHEMBL4354847, “Congenetic Hybrids Derived from Dearomatized Isoprenylated Acylphloroglucinol with Opposite Effects on Cav3.1 Low Voltage-Gated Ca2+ Channel” (J Med Chem, 2020):
Calls of active or inactive are those of the source.

Columns and labels:
Format in all cases: cell-based
[1] = species: Mus musculus; test: Agonist activity at mouse Cav3.1 R1715H mutant expressed in HEK293T cells assessed as change in time constant of activation at 10 uM at holding potential of -100 mV by whole cell electrophysiological method
[2] = species: Mus musculus; test: Agonist activity at mouse Cav3.1 R1715H mutant expressed in HEK293T cells assessed as change in slope factor at 10 uM at holding potential of -100 mV by whole cell electrophysiological method
[3] = molecular target: T-type calcium channel alpha 1G subunit (Mus musculus) (UniProt Q27YN9); test: Agonist activity at mouse Cav3.1 expressed in HEK293T cells assessed as increase in window current at 5 uM at holding potential of -100 mV by whole cell electrophysiological method
Sequence of T-type calcium channel alpha 1G subunit (Mus musculus) (Q27YN9 as listed by the source): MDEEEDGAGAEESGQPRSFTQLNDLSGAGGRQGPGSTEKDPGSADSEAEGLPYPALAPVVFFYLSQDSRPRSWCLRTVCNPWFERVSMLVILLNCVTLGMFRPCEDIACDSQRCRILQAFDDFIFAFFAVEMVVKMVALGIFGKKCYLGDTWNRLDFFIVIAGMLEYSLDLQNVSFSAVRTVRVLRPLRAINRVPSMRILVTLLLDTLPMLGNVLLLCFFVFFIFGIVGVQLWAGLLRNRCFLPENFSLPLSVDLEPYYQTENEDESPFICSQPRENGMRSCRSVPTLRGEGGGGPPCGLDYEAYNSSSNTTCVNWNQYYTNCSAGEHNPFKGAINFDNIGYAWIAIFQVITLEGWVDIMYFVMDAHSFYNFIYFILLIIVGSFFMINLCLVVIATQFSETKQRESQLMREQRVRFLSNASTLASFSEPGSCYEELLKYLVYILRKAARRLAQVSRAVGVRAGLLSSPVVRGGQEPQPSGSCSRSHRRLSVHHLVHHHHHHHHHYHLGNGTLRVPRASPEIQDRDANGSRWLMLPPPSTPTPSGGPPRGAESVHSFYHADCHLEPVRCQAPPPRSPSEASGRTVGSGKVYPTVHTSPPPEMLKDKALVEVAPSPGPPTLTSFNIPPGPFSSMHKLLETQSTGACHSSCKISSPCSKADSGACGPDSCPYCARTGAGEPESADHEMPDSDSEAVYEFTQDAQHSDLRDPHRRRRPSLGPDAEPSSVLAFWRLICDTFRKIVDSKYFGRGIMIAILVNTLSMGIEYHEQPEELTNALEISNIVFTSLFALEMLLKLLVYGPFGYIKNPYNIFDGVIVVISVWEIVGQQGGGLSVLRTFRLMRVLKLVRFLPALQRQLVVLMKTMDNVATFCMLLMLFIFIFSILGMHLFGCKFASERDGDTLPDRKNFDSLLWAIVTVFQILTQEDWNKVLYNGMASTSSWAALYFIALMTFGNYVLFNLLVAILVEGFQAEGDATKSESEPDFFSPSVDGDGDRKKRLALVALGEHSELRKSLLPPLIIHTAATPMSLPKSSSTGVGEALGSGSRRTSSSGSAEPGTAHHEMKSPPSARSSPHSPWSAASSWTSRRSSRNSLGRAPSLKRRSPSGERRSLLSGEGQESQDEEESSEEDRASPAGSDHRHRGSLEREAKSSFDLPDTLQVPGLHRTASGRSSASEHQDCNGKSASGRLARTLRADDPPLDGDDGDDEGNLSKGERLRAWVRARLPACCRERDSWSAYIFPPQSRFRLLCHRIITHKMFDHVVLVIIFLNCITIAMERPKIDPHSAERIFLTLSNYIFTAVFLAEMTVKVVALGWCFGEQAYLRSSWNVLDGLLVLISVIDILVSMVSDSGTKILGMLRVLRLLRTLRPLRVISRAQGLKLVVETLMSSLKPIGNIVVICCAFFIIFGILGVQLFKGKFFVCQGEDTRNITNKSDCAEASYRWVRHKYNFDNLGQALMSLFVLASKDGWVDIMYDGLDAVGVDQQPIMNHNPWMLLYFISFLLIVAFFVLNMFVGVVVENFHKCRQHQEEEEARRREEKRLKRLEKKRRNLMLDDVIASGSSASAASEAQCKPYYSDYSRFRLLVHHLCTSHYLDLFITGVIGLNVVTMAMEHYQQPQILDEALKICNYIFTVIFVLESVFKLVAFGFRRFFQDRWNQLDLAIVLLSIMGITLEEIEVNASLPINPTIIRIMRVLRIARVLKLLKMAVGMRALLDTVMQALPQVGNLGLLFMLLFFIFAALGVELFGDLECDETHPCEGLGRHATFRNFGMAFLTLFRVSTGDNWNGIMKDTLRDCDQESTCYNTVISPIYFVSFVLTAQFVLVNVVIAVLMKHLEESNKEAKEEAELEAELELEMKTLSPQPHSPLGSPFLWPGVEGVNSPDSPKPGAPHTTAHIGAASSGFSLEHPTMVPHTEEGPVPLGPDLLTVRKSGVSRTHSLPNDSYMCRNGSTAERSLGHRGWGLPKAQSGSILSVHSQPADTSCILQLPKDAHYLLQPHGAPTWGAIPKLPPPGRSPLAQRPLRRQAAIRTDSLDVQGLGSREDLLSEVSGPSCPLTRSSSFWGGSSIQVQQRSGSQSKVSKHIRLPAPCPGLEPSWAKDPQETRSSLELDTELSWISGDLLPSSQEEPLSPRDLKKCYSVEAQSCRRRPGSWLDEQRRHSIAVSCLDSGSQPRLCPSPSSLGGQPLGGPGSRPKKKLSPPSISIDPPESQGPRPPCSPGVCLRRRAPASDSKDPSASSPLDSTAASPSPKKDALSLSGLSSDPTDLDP

[4] = molecular target: T-type calcium channel alpha 1G subunit (Mus musculus) (UniProt Q27YN9); test: Antagonist activity at mouse Cav3.1 expressed in HEK293T cells assessed as change in slope factor at 5 uM at holding potential of -100 mV by whole cell electrophysiological method
[5] = molecular target: T-type calcium channel alpha 1G subunit (Mus musculus) (UniProt Q27YN9); test: Agonist activity at mouse Cav3.1 expressed in HEK293T cells assessed as change in time constant of activation at 5 uM at holding potential of -100 mV by whole cell electrophysiological method
[6] = species: Mus musculus; test: Antagonist activity at mouse Cav3.1 R1715H mutant expressed in HEK293T cells assessed as depolarization of action potential at 10 uM at holding potential of -100 mV by whole cell electrophysiological method
[7] = molecular target: T-type calcium channel alpha 1G subunit (Mus musculus) (UniProt Q27YN9); test: Agonist activity at mouse Cav3.1 expressed in HEK293T cells assessed as increase in current amplitude at 300 uM at holding potential of -100 mV measured up to 150 millisecs in presence of LVGCC blocker Ni2+ by whole cell electrophysiological method
[8] = molecular target: T-type calcium channel alpha 1G subunit (Mus musculus) (UniProt Q27YN9); test: Agonist activity at mouse Cav3.1 expressed in HEK293T cells assessed as increase in current amplitude at 5 uM at holding potential of -100 mV measured after 12 to 14 secs by whole cell electrophysiological method
[9] = species: Mus musculus; test: Agonist activity at mouse Cav3.1 R1715H mutant expressed in HEK293T cells assessed as increase in 200 ms ramp from -100 to -40 mV after 100 ms hyperpolarization of -100 mV evoked peak of low threshold Ca2+ spike at 10 uM at -60 mV holding potential by whole cell electrophysiological method relative to control
[10] = molecular target: T-type calcium channel alpha 1G subunit (Mus musculus) (UniProt Q27YN9); test: Agonist activity at mouse Cav3.1 expressed in HEK293T cells assessed as change in slope factor at 5 uM at holding potential of -100 mV by whole cell electrophysiological method
[11] = species: Mus musculus; test: Agonist activity at mouse Cav3.1 R1715H mutant expressed in HEK293T cells assessed as normalized window current at 10 uM at holding potential of -100 mV by whole cell electrophysiological method
[12] = molecular target: T-type calcium channel alpha 1G subunit (Mus musculus) (UniProt Q27YN9); test: Agonist activity at mouse Cav3.1 expressed in HEK293T cells assessed as increase in current amplitude at 3 to 30 uM at holding potential of -100 mV incubated prior to compound washout by whole cell electrophysiological method
[13] = species: Mus musculus; test: Agonist activity at mouse Cav3.1 R1715H mutant expressed in HEK293T cells assessed as change in half-maximal activation potential at 10 uM at holding potential of -100 mV by whole cell electrophysiological method (reference value: -38 +/- 4.3 mV)
[14] = species: Mus musculus; test: Agonist activity at mouse Cav3.1 R1715H mutant expressed in HEK293T cells assessed as shift in voltage dependence of activation at 10 uM at holding potential of -100 mV by whole cell electrophysiological method
[15] = molecular target: T-type calcium channel alpha 1G subunit (Mus musculus) (UniProt Q27YN9); test: Agonist activity at mouse Cav3.1 expressed in HEK293T cells assessed as decrease in half-maximal activation potential at 5 uM at holding potential of -100 mV incubated prior to compound washout by whole cell electrophysiological method
[16] = molecular target: T-type calcium channel alpha 1G subunit (Mus musculus) (UniProt Q27YN9); test: Agonist activity at mouse Cav3.1 expressed in HEK293T cells assessed as increase in current amplitude at 5 uM at holding potential of -100 mV in presence of hypatone-B by whole cell electrophysiological method
[17] = molecular target: T-type calcium channel alpha 1G subunit (Mus musculus) (UniProt Q27YN9); test: Antagonist activity at mouse Cav3.1 expressed in HEK293T cells assessed as change in time constant of inactivation at 5 uM at holding potential of -100 mV by whole cell electrophysiological method
[18] = molecular target: T-type calcium channel alpha 1G subunit (Mus musculus) (UniProt Q27YN9); test: Antagonist activity at mouse Cav3.1 expressed in HEK293T cells assessed as half-maximal inactivation potential at 5 uM at holding potential of -100 mV by whole cell electrophysiological method (reference value: -70.8 +/- 3 mV)
[19] = species: Mus musculus; test: Antagonist activity at mouse Cav3.1 R1715H mutant expressed in HEK293T cells assessed as change in time constant of inactivation at 10 uM at holding potential of -100 mV by whole cell electrophysiological method
[20] = molecular target: T-type calcium channel alpha 1G subunit (Mus musculus) (UniProt Q27YN9); test: Antagonist activity at mouse Cav3.1 expressed in HEK293T cells assessed as increase in half-maximal activation potential at 5 uM at holding potential of -100 mV incubated prior to compound washout by whole cell electrophysiological method
[21] = molecular target: T-type calcium channel alpha 1G subunit (Mus musculus) (UniProt Q27YN9); test: Agonist activity at mouse Cav3.1 expressed in HEK293T cells assessed as half-maximal activation potential at 5 uM at holding potential of -100 mV by whole cell electrophysiological method (reference value: -44 +/- 2.8 mV)
[22] = molecular target: T1, T-type calcium channel alpha 1G subunit (Mus musculus, UniProt Q27YN9); test: Agonist activity at mouse Cav3.1 expressed in HEK293T cells assessed as increase in current amplitude at holding potential of -100 mV by whole cell electrophysiological method
T1 sequence (Q27YN9 whole entry): as the sequence (Q27YN9 as listed by the source) above

[23] = Agonist activity at mouse Cav3.1 R1715H mutant expressed in HEK293T cells assessed as increase in current amplitude at holding potential of -100 mV by whole cell electrophysiological method; settings: HEK-293T
[24] = molecular target: T-type calcium channel alpha 1G subunit (Mus musculus) (UniProt Q27YN9); test: (§1) Antagonist activity at mouse Cav3.1 expressed in HEK293T cells assessed as inhibition of current amplitude at holding potential of -100 mV by whole cell electrophysiological method
[25] = molecular target: T1, T-type calcium channel alpha 1G subunit; test: as §1
[26] = molecular target: T-type calcium channel alpha 1G subunit (Mus musculus) (UniProt Q27YN9); test: Antagonist activity at mouse Cav3.1 expressed in HEK293T cells assessed as inhibition of current amplitude at 10 uM at holding potential of -100 mV incubated prior to compound washout by whole cell electrophysiological method
[27] = molecular target: Voltage-dependent T-type calcium channel subunit alpha-1G (Homo sapiens, UniProt O43497); test: Agonist activity at Cav3.1 (unknown origin) expressed in HEK293T cells assessed as increase in current amplitude at holding potential of -100 mV by whole cell patch-clamp electrophysiological method
Sequence of Voltage-dependent T-type calcium channel subunit alpha-1G (O43497 whole entry): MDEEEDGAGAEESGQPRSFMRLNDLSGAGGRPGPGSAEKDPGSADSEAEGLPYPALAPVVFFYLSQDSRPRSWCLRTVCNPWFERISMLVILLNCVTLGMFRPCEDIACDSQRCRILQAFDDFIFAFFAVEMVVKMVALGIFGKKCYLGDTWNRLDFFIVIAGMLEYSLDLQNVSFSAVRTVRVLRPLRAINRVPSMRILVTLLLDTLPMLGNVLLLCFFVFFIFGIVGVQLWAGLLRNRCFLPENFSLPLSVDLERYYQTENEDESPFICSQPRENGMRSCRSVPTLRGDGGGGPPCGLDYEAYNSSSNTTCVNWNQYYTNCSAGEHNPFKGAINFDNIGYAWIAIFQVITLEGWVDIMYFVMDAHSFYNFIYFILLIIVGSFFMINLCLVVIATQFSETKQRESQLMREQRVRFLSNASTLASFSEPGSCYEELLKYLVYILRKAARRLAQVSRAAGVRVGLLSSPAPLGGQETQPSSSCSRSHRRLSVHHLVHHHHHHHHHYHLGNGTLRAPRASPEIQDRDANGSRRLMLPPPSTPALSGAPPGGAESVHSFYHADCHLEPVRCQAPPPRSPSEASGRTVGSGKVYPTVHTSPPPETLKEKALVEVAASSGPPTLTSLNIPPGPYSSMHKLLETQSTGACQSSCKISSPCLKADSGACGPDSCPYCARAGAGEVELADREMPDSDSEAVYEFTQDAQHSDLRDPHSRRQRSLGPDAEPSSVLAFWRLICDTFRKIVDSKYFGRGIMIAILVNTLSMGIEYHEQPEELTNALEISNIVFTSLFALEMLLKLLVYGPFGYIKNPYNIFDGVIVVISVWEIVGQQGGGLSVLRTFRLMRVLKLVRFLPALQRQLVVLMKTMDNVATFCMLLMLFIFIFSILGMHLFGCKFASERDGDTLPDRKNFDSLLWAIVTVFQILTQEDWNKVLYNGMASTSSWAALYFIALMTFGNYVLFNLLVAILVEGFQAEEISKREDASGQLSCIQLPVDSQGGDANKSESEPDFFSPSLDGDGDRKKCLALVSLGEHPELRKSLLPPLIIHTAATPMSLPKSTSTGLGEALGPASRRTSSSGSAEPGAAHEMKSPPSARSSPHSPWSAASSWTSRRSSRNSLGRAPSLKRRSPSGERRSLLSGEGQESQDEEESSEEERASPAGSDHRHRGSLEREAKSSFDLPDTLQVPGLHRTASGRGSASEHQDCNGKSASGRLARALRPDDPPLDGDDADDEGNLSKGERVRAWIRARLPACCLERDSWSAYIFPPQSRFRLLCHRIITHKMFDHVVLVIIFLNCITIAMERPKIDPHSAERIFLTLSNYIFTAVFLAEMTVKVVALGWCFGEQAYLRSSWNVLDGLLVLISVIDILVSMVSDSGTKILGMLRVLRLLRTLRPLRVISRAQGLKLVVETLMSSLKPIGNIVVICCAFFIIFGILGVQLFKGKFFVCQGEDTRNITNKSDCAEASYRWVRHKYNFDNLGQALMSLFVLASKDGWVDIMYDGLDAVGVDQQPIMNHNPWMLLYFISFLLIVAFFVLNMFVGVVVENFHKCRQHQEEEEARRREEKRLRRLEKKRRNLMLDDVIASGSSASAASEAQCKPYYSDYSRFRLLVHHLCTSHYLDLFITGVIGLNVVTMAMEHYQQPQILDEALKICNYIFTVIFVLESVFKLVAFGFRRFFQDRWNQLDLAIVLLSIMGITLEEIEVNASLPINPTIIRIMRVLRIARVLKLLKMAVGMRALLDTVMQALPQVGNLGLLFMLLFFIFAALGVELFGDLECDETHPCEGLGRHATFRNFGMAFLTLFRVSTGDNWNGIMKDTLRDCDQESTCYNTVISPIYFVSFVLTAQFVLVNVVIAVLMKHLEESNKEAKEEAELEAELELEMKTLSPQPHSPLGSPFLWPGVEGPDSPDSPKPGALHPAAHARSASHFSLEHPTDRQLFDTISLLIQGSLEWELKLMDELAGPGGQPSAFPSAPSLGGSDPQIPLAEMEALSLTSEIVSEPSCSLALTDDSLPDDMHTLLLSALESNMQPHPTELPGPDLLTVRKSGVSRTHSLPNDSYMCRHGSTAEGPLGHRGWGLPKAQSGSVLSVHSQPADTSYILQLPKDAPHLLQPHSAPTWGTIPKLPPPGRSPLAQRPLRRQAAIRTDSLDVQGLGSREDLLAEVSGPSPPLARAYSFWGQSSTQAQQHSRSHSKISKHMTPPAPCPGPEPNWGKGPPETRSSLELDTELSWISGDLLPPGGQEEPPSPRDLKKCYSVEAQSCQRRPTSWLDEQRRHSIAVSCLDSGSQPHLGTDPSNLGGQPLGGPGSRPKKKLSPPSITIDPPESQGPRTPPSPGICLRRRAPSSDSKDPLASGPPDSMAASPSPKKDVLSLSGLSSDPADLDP

[28] = molecular target: T-type calcium channel alpha 1G subunit (Mus musculus) (UniProt Q27YN9); test: Antagonist activity at mouse Cav3.1 expressed in HEK293T cells assessed as inhibition of current amplitude at 2 uM at holding potential of -100 mV in presence of hypatone-A by whole cell electrophysiological method

CC(C)=CCC1(CC=C(C)C)C(=O)C(C(=O)c2ccccc2)=C2O[C@]3(C)CC[C@H]4C[C@@H]3[C@]2(C1=O)C4(C)C
Activity [1]: inactive | Activity [2]: inactive | Activity [3]: Active | Activity [4]: inactive | Activity [5]: inactive | Activity [6]: inactive | Activity [7]: inactive | Activity [8]: Active | Activity [9]: 26.7% | Activity [10]: inactive | Activity [11]: Active | Activity [12]: inactive | V1/2 [13]: -43.8 mV | Activity [14]: inactive | Activity [15]: inactive | Activity [16]: Active | Activity [17]: inactive | V1/2 [18]: -66.5 mV | Activity [19]: inactive | Activity [20]: inactive | V1/2 [21]: -47.6 mV | EC50 [22]: 3.8 µM | EC50 [23]: 9.6 µM

C=C(C)[C@H]1CC[C@@](C)(O)[C@@H](C2=C(O)C(CC=C(C)C)(CC=C(C)C)C(=O)C(C(=O)C(C)CC)=C2O)C1 (some centres undefined)
inhibition [24]: Dose-dependent effect | IC50 [25]: 0.19 µM | inhibition [26]: Active

CC(C)C1=C/C(=C2\C(=O)C=C3C(C)(C)CCC[C@@]32C)OC1=O
EC50 [27]: 12.5 µM

C=C(C)[C@H]1CC[C@@](C)(O)[C@@H](C2=C(O)C(CC=C(C)C)(CC=C(C)C)C(=O)C(C(=O)C(C)C)=C2O)C1
inhibition [24]: Dose-dependent effect | IC50 [25]: 3.5 µM | inhibition [26]: Active

C=C(C)[C@H]1CC[C@@](C)(O)[C@@H](C2=C(O)C(CC=C(C)C)(CC=C(C)C)C(=O)C(C(=O)c3ccccc3)=C2O)C1
inhibition [24]: Dose-dependent effect | IC50 [25]: 2.3 µM | inhibition [26]: Active | inhibition [28]: Active
